Legend:
Experiment in all cases: Fura-2 calcium imaging, transfected HEK cells
Format in all cases: cell-based
TAS2R143 [1] = biological target: T1, TAS2R143 (Mus musculus, UniProt Q7TQB9); details: 100 uM ligand; agonist; Galpha16-gustducin chimera co-expressed
T1 construct: N-terminal tag of first 39 residues of bovine rhodopsin; pcDNA3.1(+); HEK 293 cells (ATCC CRL-1573); co-expressed human Galpha16 / mouse gustducin C-terminal 44 chimera
T1 sequence (Q7TQB9 1-293): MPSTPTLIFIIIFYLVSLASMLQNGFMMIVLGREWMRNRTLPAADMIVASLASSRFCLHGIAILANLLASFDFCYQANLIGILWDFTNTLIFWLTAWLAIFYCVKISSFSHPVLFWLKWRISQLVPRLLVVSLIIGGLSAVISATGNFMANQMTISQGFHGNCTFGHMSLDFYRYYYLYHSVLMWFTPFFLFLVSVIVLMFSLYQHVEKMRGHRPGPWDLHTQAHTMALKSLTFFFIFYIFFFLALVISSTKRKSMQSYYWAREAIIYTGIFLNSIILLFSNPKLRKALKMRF

TAS2R131 = biological target: T2, TAS2R131 (Mus musculus, UniProt Q7M708); details: 100 uM ligand; weak agonist; Galpha16-gustducin chimera co-expressed
T2 construct: N-terminal tag of first 39 residues of bovine rhodopsin; pcDNA3.1(+); HEK 293 cells (ATCC CRL-1573); co-expressed human Galpha16 / mouse gustducin C-terminal 44 chimera
T2 sequence (Q7M708 1-310): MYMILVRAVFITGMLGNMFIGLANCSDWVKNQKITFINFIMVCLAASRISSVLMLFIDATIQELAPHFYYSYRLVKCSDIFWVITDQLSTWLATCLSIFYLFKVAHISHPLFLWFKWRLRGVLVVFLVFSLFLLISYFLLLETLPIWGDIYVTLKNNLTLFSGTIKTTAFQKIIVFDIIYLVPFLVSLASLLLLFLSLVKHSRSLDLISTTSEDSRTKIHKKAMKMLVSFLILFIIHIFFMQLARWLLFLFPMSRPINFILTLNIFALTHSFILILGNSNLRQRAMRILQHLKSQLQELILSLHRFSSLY

TAS2R115 = biological target: T3, TAS2R115 (Mus musculus, UniProt Q7M719); details: 100 uM ligand; weak agonist; Galpha16-gustducin chimera co-expressed
T3 construct: N-terminal tag of first 39 residues of bovine rhodopsin; pcDNA3.1(+); HEK 293 cells (ATCC CRL-1573); co-expressed human Galpha16 / mouse gustducin C-terminal 44 chimera
T3 sequence (Q7M719 1-310): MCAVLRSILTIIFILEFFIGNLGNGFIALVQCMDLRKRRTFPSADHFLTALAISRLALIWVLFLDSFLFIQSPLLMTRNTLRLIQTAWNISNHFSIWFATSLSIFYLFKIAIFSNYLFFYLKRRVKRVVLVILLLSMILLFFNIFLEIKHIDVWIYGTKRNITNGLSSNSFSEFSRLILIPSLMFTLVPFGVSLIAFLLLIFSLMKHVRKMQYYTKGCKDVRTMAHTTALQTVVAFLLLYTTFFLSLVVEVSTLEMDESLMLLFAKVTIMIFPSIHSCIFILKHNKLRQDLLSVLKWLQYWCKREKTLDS

TAS2R143 [2] = biological target: T1, TAS2R143; details: 500 uM ligand; agonist; Galpha16-gustducin chimera co-expressed

Compound | % of transfected cells responding at 100 uM (TAS2R143 [1]) | % of transfected cells responding at 100 uM (TAS2R131) | % of transfected cells responding at 100 uM (TAS2R115) | % of transfected cells responding at 500 uM (TAS2R143 [2])
CCC(C)C1=NCCS1 (stereo not drawn) [SBT, 2-sec-butylthiazoline] | 13% |  |  | 
CCc1cnccn1 [2-EP, 2-ethylpyrazine] | 14% | ~ 5% | ~ 5% | 
CCCC1CCS1 (stereo not drawn) [2-PT, 2-propylthietane] | 47% |  |  | 
2,4,5-trimethylthiazoline [TMT] |  |  |  | 51%
